# Source: US20220249596A1, “PIC1 PEPTIDE COMPOSITIONS AND METHODS OF USE THEREOF FOR TREATMENT OF HYPOXIC ISCHEMIC ENCEPHALOPATHY” (REALTA HOLDINGS, LLC, priority 2019, published 2022)
# Entries after “also recorded” stand apart in the source; their conditions may differ. No end group written: not given here.
# Assays:
# [1] = system: systemic complement activity; test: Complement hemolytic assay (sensitized human erythrocytes) with plasma of injected neonatal rats; type: in vivo, rat
# Description: Complement activity was assayed in plasma after i.p. injection of PIC1 in term-equivalent neonatal rats. At post-natal day 7 (P7; day of birth=P1), the rat brain is histologically similar to that of a 32- to 34-week gestation human fetus or newborn infant, i.e., cerebral cortical neuronal layering is complete, the germinal matrix is involuting, and white matter as yet has undergone little myelination. Hypoxic-ischemic brain damage in the 7-day-old rat pups is induced with unilateral common carotid artery ligation followed by systemic hypoxia produced by the inhalation of 8% oxygen/balance nitrogen, at constant temperature (37° C.) (Vanucci et al. 2005. Dev Neurosci, Vol. 27, pages 81-86).
# Timed pregnant Wistar rats (Hilltop Lab Animals Inc., Scottdale, Pa.) were purchased at embryonic day 19, housed individually, and allowed to deliver spontaneously. Pups were randomized on the day of birth to control for the litter effect (10/litter). At P10-12 (term-equivalent), pups were randomly assigned to 4 different treatment groups: no intervention (control), normothermia (NT), hypothermia-treated vehicle controls (HT), and treatment (PIC1). NT and HT animals were injected with the vehicle used to suspend PIC1. Experimental animals underwent unilateral carotid ligation followed by exposure to hypoxia (8% O2/balanced nitrogen, Vannucci model) for 45 minutes. Pups in the HT group were placed in open jars in a temperature controlled chamber set to 28-30° C. to maintain a target rectal temperature of 31-32° C. for 6 hours, while pups in the control, NT, and PIC1 groups were kept in a separate chamber at 37° C. Pups in the PIC1 group were injected with 2 doses of PIC1 (160 mg/kg, i.p.), with the first dose at the time of carotid ligation, and the second dose four hours later. After intervention, pups were placed back with the dam, and harvested at different time points.
# Cobra-venom factor (CVF) was injected i.p. into one group of animals to deplete complement activity in vivo 24 hours prior to carotid ligation. On the day of surgery, a group of animals was injected with 160 mg/kg of PIC1 i.p. at the time of carotid ligation. The animals were harvested at 0.5-48 hours after injection, and plasma was collected by cardiac puncture.
# Human AB erythrocytes were derived from healthy human volunteers. The erythrocytes were sensitized as described in Bonaparte et al. using rat anti-human glycophorin A IgG (LifeSpan Biosciences, Inc., Seattle, Wash.). Sensitized cells (5×10^7), serum, and GVBS^++ (Veronal-buffered saline, 0.1% gelatin, 0.15 mM CaCl2, and 1.0 mM MgCl) were combined in a total volume of 375 μl , and incubated for 1 hour at 37° C. in borosilicate glass tubes. […] The tubes were centrifuged and the absorbance of the supernatants was measured in a spectrophotometer at 412 nm.
# [2] = system: brain infarct after HIE; settings: rat, in vivo, ip, 160 mg/kg
# [3] = system: C5a; test: Systemic C5a level in plasma, fluorescent immunoassay; type: in vivo, rat; settings: 12 and 24 hours after initial insult, P<0.05; persisted to 48 hours
# Description: The local and systemic effects of NT, HT and PIC1 treatment on the complement cascade were measured. CNS C1q levels and systemic C1q and C5a levels were measured using a fluorescent immunoassay.
# Systemic C1q and C5a levels were measured as follows. 100 μl of 1:5 plasma in 1×PBS was added to the wells of a plate described above and incubated overnight at 4° C. The plates were washed 3 times with PBST and blocked with NDS or NGS for one hour. Samples were probed with either 1:50 goat anti-human C1q (Complement Technology) in NDS or 1:200 mouse anti-human C5a (Human Complement Component C5a DuoSet ELISA, R&D Systems, Inc., Minneapolis, Minn.) in NGS for one hour at RT. The wells were washed and 1:500 donkey anti-goat 488 (Life Technologies) in NDS or 1:500 goat anti-mouse AF 568 (Life Technologies) in NGS was added, and incubated for one hour at RT. The wells were washed and the plate read using a Synergy HT (BioTek). Systemic C3a levels in plasma (1:20 dilution) were measured using a standard ELISA, according to the manufacturer's instructions (Rat C3a ELISA Kit, TSZ ELISA, Waltham, Mass.).
# [4] = T-maze test; type: in vivo, rat; settings: six weeks after surgery, between study groups, pooled and separated genders
# Source text: No other preparation was needed. The thawed tubes were kept on ice until dosing.
# The T-maze test apparatus was plastic with two 45 cm long arms, which extend at right-angles from a 57 cm long alley (see www.noldus.com/animal-behavior-research/t-maze). The arms have a width of 10 cm and were surrounded by 10 cm high walls. The test consists of two trials at an interval of five minutes, during which time the animals are returned to their home cages. During an eight minute acquisition trial, one of the short arms was closed. In a three minute test trial, rats had access to both arms and to the alley. Time spent in each of the arms and in the long alley was assessed. Cognitively healthy rats tended to spend more time in the novel arm than in the familiar one or in the alley.
# In an eight minute acquisition trial, while the novel arm is blocked, each rat was lowered to the beginning of the alley arm, facing the wall, and allowed to freely explore the maze's arms (start arm (alley arm), center and familiar arm), while the novel arm was inaccessible. […]
# During the three minute test trial, with all three arms accessible (the wall of the novel arm was removed), each rat was allowed to freely explore the whole maze. Time spent in each of the arms was recorded using EthoVision XT 11 automated tracking system (Noldus Information Technology).
substance,measurement,setting,value
IALILEPICCQERAA-dPEG24 (cysteine pairing not given here) [PIC1],inhibition of systemic complement activation,"[1]; 30 minutes after i.p. injection, 160 mg/kg, plasma",70%
same,"return of complement activity to baseline, time after injection","[1]; gradual return after i.p. injection, 160 mg/kg",≤ 8 h
same,"systemic complement inhibition at 0.5, 1, 2 and 4 hours after injection","[1]; versus untreated NT animals, P<0.05",significant systemic complement inhibition
same,"complement activity at 8, 16 and 48 hours after injection",[1]; versus untreated controls,comparable to that of untreated controls
same,decrease in brain infarct size,[2],68%
same,"systemic C5a levels, NT animals relative to PIC1-treated animals",[3],significantly higher
same,"T-maze: time spent in novel and familiar arms, alley, center",[4],no significant differences; also recorded: No statistical significances
